Laboratory results: patent US20090170871A1, “IL-8 Receptor Antagonists” (SMITHKLINE BEECHAM CORPORATION, priority 2006, published 2009)

Tested on: whole blood neutrophil CD11b expression (CXCL2-stimulated)
Experiment: Neutrophil CD11b Stimulation Following Oral Dosing to Rats
Assay type: in vivo, Lewis rats
Procedure: Rat whole blood, 3 ml, was drawn by cardiac puncture in a syringe containing 100 μl of 0.25 M EDTA (GIBCO, Grand Island, N.Y.). Rat CXCL2 (PeproTech, Rocky Hill, N.J.) stock was made by reconstitution in Kreb's/0.1% BSA (KBSA) at 10 μM. The stock was diluted to “11×” the maximum concentration used in DPBS (GIBCO) and serially diluted in KBSA/DPBS vehicle. […] The tubes were incubated for 30 minutes in a 37° C. bath, with gentle hand agitation every 10 minutes. The samples were then placed on ice for 10 minutes followed by addition of 10 μl of anti-rat-CD11b-FITC or FITC-labeled mouse IgG2a isotype control (both Antigenix America, Huntington Station, N.Y.) and incubated for 30 minutes on ice. FACS Lysing Solution (Becton Dickinson, San Jose, Calif.), 1 ml of 1×, was added with immediate vigorous vortexing, followed by additional vortex after the solution was added to the last sample. Samples were incubated for 10 minutes at room temperature and the leukocytes were pelleted at ˜300×g and washed with DPBS. Cells were resuspended in 650 μl of 1% paraformaldahyde. […] FL1 (green FITC fluorescence, directly relating to CD11b content) of this population was then measured as mean channel fluorescence by analysis with CellQuest software.

Cc1ccc(S(=O)(=O)O)cc1.O=C(Nc1ccc(Cl)c(S(=O)(=O)N2CCNCC2)c1O)Nc1cccc(F)c1Cl [present compound, N-[4-chloro-2-hydroxy-3-(piperazine-1-sulfonyl)phenyl]-N′-(2-chloro-3-fluorophenyl)urea p-toluenesulfonate]
EC50 of the CXCL2 concentration response curve (CD11b expression) in treated rats (oral 10 mg/kg, Lewis rats, vehicle-treated rats 4.7 nM (1.9-7.4; 95% C.I.), treated 95% C.I. 10.0-14.7, p<0.001, n=6 per group): 12.3 nM
inhibition of whole blood neutrophil CD11b expression (oral dosing to Lewis rats at 10 mg/kg, blood drawn one hour later): active
